Measured values reported in patent US9926529B2, “Derivation of neural stem cells and dopaminergic neurons from human pluripotent stem cells” (International Stem Cell Corporation, priority 2012, dated 2018).

System: hPSC-derived DA neurons
Test: Microelectrode array (MEA) recordings of GS-treated neurons
Type: cell-based, human
Settings: day 95 of differentiation, 2.5 μM guggulsterone
Description: Extracellular voltage recordings from cultured hPSC-derived DA neurons were made on day 95 of differentiation in NB medium [NeuroBasal medium, 1× GlutaMAX, 1× N2/B27 Supplement (Invitrogen)] supplemented with 2.5 μM guggulsterone at 37° C. using a Muse microelectrode array (MEA) system (Axion Biosystems). The surface of the MEA dishes contained an 8×8 grid (64 electrodes total) of 30 μm diameter round extracellular electrodes composed of nanoporous platinum, with 200 μm inter-polar spacing.
MEA dishes were sterilized by rinsing 3 times in sterile deionized water, once in 70% ethanol and once in 100% ethanol. Dishes were then capped and inverted in a covered petri dish, and baked at 50° C. for 4-5 hr. A polyethyleneimine (PEI) base coating was deposited by adding […] of filtered (0.22 μm filter) 0.1% PEI in sodium borate buffer (15 mM; pH 8.4) to each dish and incubating at room temperature for 1 hr. Immediately following aspiration of the PEI solution, dishes were washed 4× with 1 ml deionized water, and air-dried overnight in a tissue culture hood. […]
Voltage data were sampled simultaneously on all electrodes at 12.5 kHz with a hardware filter bandwidth of 200-5000 Hz, and saved to computer with AxIS software (Axion Biosystems). […] For spike raster plots and inter-spike interval histograms, time-stamps of detected spikes were exported to Neuroexplorer (NEX Technologies). […]

C/C=C1\C(=O)C[C@H]2[C@@H]3CCC4=CC(=O)CC[C@]4(C)[C@H]3CC[C@]12C [Guggulsterone]
fraction of the 64 total MEA electrodes showing moderate activity (>5 spikes/min): Approximately one third
